Test system: rSARS-COV-2/YS006_Nluc
Assay type: cell-based, SARS coronavirus 2
Details: compared to healthy human-derived IgG control, FIG. 4D

## etesevimab: Eli Lilly's recombinant monoclonal antibody for the treatment of SARS coronavirus 2
  inhibition of viral entry into cells / reporter expression: inhibit viral entry into cells and reduce reporter expression as its concentration increased

Reference: patent publication US20260071190A1, “SARS CORONAVIRUS 2 R[…] […] GENES, DERIVED FROM GH CLADE SARS CORONAVIRUS 2 OF KOREAN ISOLATE, AND THE PRODUCTION METHOD THEREFOR” (RpexBio, Inc., priority 2022, published 2026)
